Legend:
microsomal human COX-2 = target: T1, microsomal human COX-2 (Homo sapiens, UniProt P35354); assay: Microsomal cyclooxygenase assay, COX-2; format: biochemical; settings: microsomal fraction, PGE2 by EIA; read-out: IC50 against microsomal human COX-2
T1 construct: from which microsomes are prepared for microsomal assays, are human osteosarcoma 143 cells; endogenous in cells; host or cells: human osteosarcoma 143 cells (microsomal fraction)
T1 sequence (P35354 18-604): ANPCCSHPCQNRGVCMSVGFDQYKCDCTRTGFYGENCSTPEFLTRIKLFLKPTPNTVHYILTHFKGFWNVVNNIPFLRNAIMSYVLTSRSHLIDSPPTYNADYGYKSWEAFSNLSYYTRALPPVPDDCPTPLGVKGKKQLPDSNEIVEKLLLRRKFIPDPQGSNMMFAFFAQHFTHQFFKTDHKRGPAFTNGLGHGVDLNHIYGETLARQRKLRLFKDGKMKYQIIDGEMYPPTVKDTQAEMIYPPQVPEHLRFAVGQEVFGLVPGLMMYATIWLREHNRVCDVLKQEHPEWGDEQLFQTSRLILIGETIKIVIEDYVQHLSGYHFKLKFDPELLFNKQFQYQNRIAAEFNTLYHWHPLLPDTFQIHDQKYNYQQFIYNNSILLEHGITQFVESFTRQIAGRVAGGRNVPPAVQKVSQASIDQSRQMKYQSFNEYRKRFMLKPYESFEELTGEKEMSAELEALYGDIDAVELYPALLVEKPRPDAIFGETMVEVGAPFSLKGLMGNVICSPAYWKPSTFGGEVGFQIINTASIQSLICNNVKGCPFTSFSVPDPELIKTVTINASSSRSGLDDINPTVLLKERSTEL
Description: (§1) Compounds are tested as inhibitors of cyclooxygenase activity in whole cell and microsomal cyclooxygenase assays. Both of these assays measure prostaglandin E2 (PGE2) synthesis in response to arachidonic acid, using a radioimmunoassay. Cells used for whole cell assays, and from which microsomes are prepared for microsomal assays, are human osteosarcoma 143 cells (which specifically express cyclooxygenase-2) and human U-937 cells (which specifically express cyclooxygenase-1). In these assays, 100% activity is defined as the difference between prostaglandin E2 synthesis in the absence and presence of arachidonate addition. IC50 values represent the concentration of putative inhibitor required to return PGE2 synthesis to 50% of that obtained as compared to the uninhibited control.
(§2) Cox microsomal fractions are prepared as previously described (Percival et al., Arch. Biochem. Biophys. (1994) 315:111–118). The enzyme reactions are performed in 50 mM KPi pH 8.0, 1 μM heme, 1 mM phenol supplemented with 10 μg/ml of each Cox-1 or Cox-2 microsomal fractions. 1 μl DMSO or test compound (100 fold stock concentrated in DMSO) are added to 100 μl buffer. The enzyme reaction is initiated 15 minutes later by the addition of 10 μl of 100 μM arachidonic acid. […] PGE2 levels are then determined by EIA (Assay Designs) using the manufacturer's instruction.

microsomal human COX-1 = target: T2, microsomal human COX-1 (Homo sapiens, UniProt P23219); assay: Microsomal cyclooxygenase assay, COX-1; format: biochemical; settings: microsomal fraction, PGE2 by EIA; read-out: IC50 against microsomal human COX-1
T2 construct: from which microsomes are prepared for microsomal assays, are human osteosarcoma 143 cells; endogenous in cells; host or cells: human U-937 cells (microsomal fraction)
T2 sequence (P23219 24-599): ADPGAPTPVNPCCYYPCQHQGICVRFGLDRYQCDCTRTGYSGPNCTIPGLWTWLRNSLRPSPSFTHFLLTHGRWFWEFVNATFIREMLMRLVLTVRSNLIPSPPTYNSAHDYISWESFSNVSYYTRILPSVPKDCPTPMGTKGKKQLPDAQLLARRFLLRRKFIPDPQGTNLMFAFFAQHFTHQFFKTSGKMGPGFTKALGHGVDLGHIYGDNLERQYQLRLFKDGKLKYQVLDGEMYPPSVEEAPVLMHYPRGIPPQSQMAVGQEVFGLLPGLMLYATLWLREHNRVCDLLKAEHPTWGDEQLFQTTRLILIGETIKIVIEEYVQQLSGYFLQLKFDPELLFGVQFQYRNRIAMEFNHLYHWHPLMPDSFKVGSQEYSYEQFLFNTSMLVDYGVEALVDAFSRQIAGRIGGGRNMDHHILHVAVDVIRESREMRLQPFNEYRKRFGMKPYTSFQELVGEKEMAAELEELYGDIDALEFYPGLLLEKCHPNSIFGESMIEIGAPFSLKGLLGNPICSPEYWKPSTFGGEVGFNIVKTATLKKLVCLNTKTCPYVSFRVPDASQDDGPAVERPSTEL
Description: as §1, §2

Paw Edema = assay: Rat paw edema assay (carrageenan); format: in vivo; settings: male Sprague-Dawley rats, 3 hr after carrageenan
Description: Male Sprague-Dawley rats (150–200 g) are fasted overnight and are given p.o., either vehicle (1% methocell) or a test compound in the morning. One hr later, a line drawn using a permanent marker at the level above the ankle in one hind paw to define the area of the paw to be monitored. The paw volume (VOh) is measured using a plethysmometer (Ugo-Basile, Italy) based on the principle of water displacement. The animals are then injected subplantarly with 50 ul of a 1% carrageenan solution in saline (sigma Chem) into the paw using an insulin syringe with a 25-gauge needle (i.e. 500 ug carrageenan per paw). Three hr later, the paw volume (V3h) is measured and the increases in paw volume (V3h−VOh) are calculated. Paw edema data are the compared with the vehicle-control group and percent inhibitions calculated taking the values in the control group as 100%. All treatment groups are coded to eliminate observer bias.

Row | SMILES | IC50 (microsomal human COX-2) | IC50 (microsomal human COX-1) | Paw Edema (% inhibition) (Paw Edema; dose 1 mg/kg p.o.) | Paw Edema (% inhibition) (Paw Edema; dose 3 mg/kg p.o.) | Paw Edema (% inhibition) (Paw Edema; dose 10 mg/kg p.o.) | Paw Edema (% inhibition) (Paw Edema; dose 30 mg/kg p.o.)
1 | CCOC(=O)/C(=C(\COC(=O)OCCCCCCO[N+](=O)[O-])c1ccc(S(C)(=O)=O)cc1)c1ccccc1 [Example 9, Ethyl (2Z)-3-[4-(methylsulfonyl)phenyl]-4-[({[6-(nitrooxy)hexyl]oxy}carbonyl)oxy]-2-phenylbut-2-enoate] | > 100 µM | > 100 µM | – | – | – | –
2 | COC(=O)/C(=C(\COC(=O)OCCCCO[N+](=O)[O-])c1ccc(S(C)(=O)=O)cc1)c1ccccc1 [Example 3, methyl (2Z)-3-[4-(methylsulfonyl)phenyl]-4-({[4-(nitrooxy)butoxy]carbonyl}oxy)-2-phenylbut-2-enoate] | – | – | 42% | 51% | 68% | 79%
